According to ChEMBL document CHEMBL1201862, “PubChem BioAssay data set” (2004):
Activity calls are given as the source filed them.

What was measured:
[1] = target: T1, fMet-Leu-Phe receptor (Homo sapiens, UniProt P21462); test: FPR ligands, dose response (AID 519); assay type: functional
T1 sequence (P21462 whole entry): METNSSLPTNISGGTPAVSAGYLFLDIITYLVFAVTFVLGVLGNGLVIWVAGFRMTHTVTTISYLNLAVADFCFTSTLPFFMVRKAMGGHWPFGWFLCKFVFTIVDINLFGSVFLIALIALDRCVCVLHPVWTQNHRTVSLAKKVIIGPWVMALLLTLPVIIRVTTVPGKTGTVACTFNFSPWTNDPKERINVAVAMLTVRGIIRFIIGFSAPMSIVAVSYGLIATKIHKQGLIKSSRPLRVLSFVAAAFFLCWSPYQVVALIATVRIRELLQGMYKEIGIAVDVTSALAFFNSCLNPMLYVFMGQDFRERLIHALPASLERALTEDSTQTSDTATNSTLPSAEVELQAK

[2] = Jurkat T cell cytotoxicity, dose response, cytotoxicity control for P. falciparum gametocyte viability project, luminescence (AID 1117277); assay type: functional, cell-based;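 also: potency reflects loss of cellular ATP meaning fewer viable cells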
[3] = P. falciparum late gametocyte killing, dose response, luminescence (AID 1117278); assay type: functional, cell-based;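 also: gametocytes exposed to compound for 24 hours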
[4] = target: Cytochrome P450 3A4 (Homo sapiens, UniProt P08684);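 also: CYP3A4 tested as one member of a cytochrome P450 panel screen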
[5] = target: Mitogen-activated protein kinase 10 (Homo sapiens, UniProt P53779); test: Dose response biochemical screening assay for inhibitors of c-Jun N-Terminal Kinase 3 (JNK3). [Related pubchem assays: 746 ]
[6] = cells
[7] = target: T2, Oxysterols receptor LXR-beta (Homo sapiens, UniProt P55055); assay type: functional, cell-based;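 also: Cell-based luminescence dose-response assay of agonist activity at LXR, run as a confirmatory counterscreen to a daf-12 agonist screen; HEK293 cells with Gal4-LXR fusion and GAL4-driven luciferase reporter; agonist potency from rising luciferase signal of a Gal4-LXR reporter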
T2 sequence (P55055 whole entry): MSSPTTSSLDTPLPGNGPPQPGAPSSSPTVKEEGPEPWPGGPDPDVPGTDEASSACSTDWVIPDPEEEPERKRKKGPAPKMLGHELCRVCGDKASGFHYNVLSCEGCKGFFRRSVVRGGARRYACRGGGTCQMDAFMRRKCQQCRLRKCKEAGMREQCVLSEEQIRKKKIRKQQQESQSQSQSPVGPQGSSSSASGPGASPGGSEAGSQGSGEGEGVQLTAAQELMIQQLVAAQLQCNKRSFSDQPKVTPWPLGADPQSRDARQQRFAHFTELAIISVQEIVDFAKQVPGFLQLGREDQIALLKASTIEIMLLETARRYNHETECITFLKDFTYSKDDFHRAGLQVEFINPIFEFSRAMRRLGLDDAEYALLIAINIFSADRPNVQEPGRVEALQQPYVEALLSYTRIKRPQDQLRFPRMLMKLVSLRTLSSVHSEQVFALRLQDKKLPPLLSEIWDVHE

[8] = ZM109 Env clade C HIV-1 fusion inhibitors, dose response, HeLa effector, CEM target cells, luciferase, cherry-pick (AID 652058); assay type: functional, cell-based
[9] = off-target signal loss in HeLa-CEM21 co-culture – HeLa F-luc CTL cells, cherry-picked, counter-screen for HIV-1 Env fusion inhibitor project, dose response (AID 652040); assay type: functional, cell-based;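 also: potency for signal decrease marking cytotoxic or nonspecific inhibition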
[10] = CEM21 lymphoblast cell cytotoxicity, dose response, cytotoxicity control for viral fusion inhibitor project, CellTiter-Glo luminescence, cherry-picked (AID 652042); assay type: functional, cell-based;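 also: potency for signal decrease meaning cytotoxicity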
[11] = inhibitors of clade B AD8 Env fusion, dose response, cell-based, cherry-pick (AID 652062); assay type: functional;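 also: luciferase signal from cell-cell fusion driven by HIV-1 clade B AD8 Env; potency is for inhibitors of fusion seen as a drop in luminescence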
[12] = inhibitors of HIV Env-driven cell fusion, dose response, cherry-pick (AID 652057); assay type: functional, cell-based
[13] = target: Major prion protein (Homo sapiens, UniProt P04156); assay type: functional, cell-based
[14] = cells; remark: listed apart in the source
[15] = T. cruzi growth inhibition in host cells, dose response, cell-based, plate reader, dry powder, set 2 (AID 652275); assay type: functional
[16] = growth suppression of beta-catenin-knockout colon cells, dose response, cell-based, HCT116, human colon tumor (AID 1045); assay type: functional;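 also: HCT116 colon tumor cells with beta catenin knocked out; cells exposed to compound for 60 hours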
[17] = target: T3, Luciferin 4-monooxygenase (Photinus pyralis, UniProt P08659); test: firefly luciferase enzyme inhibitors, dose response, biochemical, luminescence (AID 1891)
[18] = test system: HT-1080; test: cytotoxicity in HT1080 fibrosarcoma cells, cell-based, fluorescence readout (AID 620); assay type: functional; conditions: Homo sapiens
[19] = Luminescence Cell-Based Dose Confirmation HTS to Identify Inhibitors of Platelet Dense Granule Release. [Related pubchem assays: 1663 (Primary HTS), 1678 (Summary of Project)]; assay type: functional
[20] = growth suppression of PTEN-null colon cells, dose response, cell-based, HCT116 PTEN knockout (AID 1047); assay type: functional;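 also: HCT116 colon tumor cells with PTEN knocked out; cells exposed to compound for 60 hours before readout; potency for loss of cell viability measured by luminescence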
[21] = target: T3, Luciferin 4-monooxygenase; test: Counter Screen for Luciferase-based Assay Positives. [Related pubchem assays: 620, 618, 411 ]

## CCCOc1ccc(C2C(C(=O)c3ccc(C)o3)=C(O)C(=O)N2Cc2cccnc2)cc1 (stereo unspecified)
[1]
  Ki: 42.7 µM (inactive)

## O=C(O)CCN1C(=O)c2ccc(NC(=O)c3ccco3)cc2C1=O
[2]
  IC50: > 83.2 µM (inactive)
[3]
  IC50: > 109 µM (inactive)

## COc1cccc2c(O)c(C(=O)NCc3cccs3)cnc12
[4]
  AC50: 1.78 µM (inconclusive)
[5]
  IC50: 18.9 µM (not active)

## CC(C)c1ccc(-n2nc3ccc(N)cc3n2)cc1
[6]
  EC50: > 67.6 µM (inactive)
[7]
  EC50: > 67.6 µM (inactive)

## CCOc1c(Cl)cc(C(=O)Nc2cccc(C(=O)O)c2)cc1Cl
[2]
  IC50: > 83.2 µM (inactive)
[3]
  IC50: > 109 µM (inactive)

## Cc1ccc(NC(=O)C2C(=O)N(CCO)C3(C)CC2c2ccccc2O3)cc1 (stereo unspecified)
[1]
  Ki: > 66.7 µM (inactive)

## Cc1cc(C)cc(COn2ccnc2)c1
[2]
  IC50: > 83.4 µM (inactive)
[3]
  IC50: > 109 µM (inactive)

## Cc1ccc2c(c1)Cc1nc3ccccc3nc1-2
[6]
  EC50: > 67.6 µM (inactive)
[7]
  EC50: > 67.6 µM (inactive)

## COc1cccc(NC(=O)c2ccncc2)c1
[2]
  IC50: > 83.4 µM (inactive)
[3]
  IC50: > 109 µM (inactive)

## CCc1ccc(OCC(=O)NCC(c2ccc(Cl)cc2)N2CCCCC2)cc1 (stereo unspecified)
[8]
  AC50: 4.51 µM (active)
[9]
  AC50: 9.03 µM (active)
[10]
  AC50: 28.4 µM (active)
[11]
  AC50: 8.41 µM (active)
[12]
  AC50: 3.95 µM (active)

## O=C(NCc1nc2ccccc2[nH]1)c1cccs1
[5]
  IC50: 43 µM (not active)

## O=C(O)CCSc1ccc2ccccc2n1
[13]
  IC50: 3.19 µM (active)
[5]
  IC50: 34.8 µM (not active)
[14]
  IC50: > 138 µM (inactive)

## COc1ccc(-c2cn3cccnc3n2)cc1NC(=O)C1CC1
[1]
  Ki: > 66.7 µM (inactive)

## COc1cc(C2NC(=O)NC(C)=C2C(=O)OC2CCCC(C)C2)ccc1O (stereo unspecified)
[5]
  IC50: 39.4 µM (not active)

## NC(=O)c1c(Br)n(C2OC(CO)C(O)C2O)c2ncnc(N)c12 (stereo unspecified)
[8]
  AC50: 5 µM (active)
[9]
  AC50: 28 µM (active)
[10]
  AC50: 3.1 µM (active)
[11]
  AC50: 7.68 µM (active)
[12]
  AC50: 3.32 µM (active)

## CC(=O)Nc1ccc(N(C(=O)CNC(=O)c2ccco2)C(C(=O)NCC2CCCO2)c2ccccc2)cc1 (stereo unspecified)
[2]
  IC50: > 83.3 µM (inactive)
[3]
  IC50: > 109 µM (inactive)

## CC(C)N1C[C@H](CNCc2ccc(Oc3ccccc3)cc2)Oc2c(NC(=O)c3ccncc3)cccc2C1=O
[15]
  AC50: 0.0164 µM (active)

## CC(C)N1CC[C@@H](CNCc2ccc(Oc3ccccc3)cc2)Oc2c(NC(=O)c3ccncc3)cccc2C1=O
[15]
  AC50: 0.083 µM (active)

## Cc1cccc(-c2ccc([C@H]3[C@H](CO)N4CCCCN(C(=O)c5cccnc5)C[C@@H]34)cc2)c1
[15]
  AC50: 2.3 µM (active)

## CC(=O)SCC(=O)/N=c1\sc2cc(F)ccc2n1C
[1]
  Ki: 22.8 µM (inactive)

## Cc1ccc(-c2nc(N/N=C/c3ccncc3)c3ccccc3n2)cc1
[6]
  EC50: > 67.5 µM (inactive)
[16]
  EC50: 43.7 µM (active)
[17]
  EC50: 0.158 µM (active)
[18]
  EC50: > 50 µM (not active)
[19]
  EC50: 0.209 µM (active)
[20]
  EC50: 59.3 µM (active)
[7]
  EC50: > 67.5 µM (inactive)
[21]
  EC50: 7.97 µM (active)
